In PubChem BioAssay AID2060340 (Molecular Pharmacology Branch, DTP, NCI, 2025):
pIC50: −log10 of the molar value. Values joined by “and” are separate entries in the source; they are usually repeats but may differ in a detail not shown here. Equal entries are not always repeated.

System: 349418-098-R-PDC spheroids, viability, % test/control
Experiment: Anticancer human tumor 349418-098-R-PDC patient-derived lung adenocarcinoma cell line growth inhibition [IpAb]
Conditions: spheroids with HUVEC and MSC; for viability, T/C: stronger effect = lower value; active = viability on the fitted dose curve at most 10% of control; inactive = the rest
Source text: Combinatorial screen of targeted agents with ipatasertib and abemaciclib in multi-cell type tumor spheroids
A high-throughput screen of multi-cell type tumor spheroids was designed to identify active combinations of targeted small molecules and ipatasertib or abemaciclib. Complex spheroids include a stromal component modeled by human endothelial cells (HUVEC) and fibroblasts modeled by human mesenchymal stem cells (MSCs). The concentration ranges selected for each drug and investigational agent were based upon clinically achievable concentrations if the clinical Cmax of the agent was known.
Compounds. The drugs and investigational agents: ipatasertib (NSC767898), abemaciclib(NSC768073), selumetinib (NSC741078), trametinib (758246), adavosertib (NSC754352), everolimus (NSC733504), sapanisertib (NSC764658), vemurafenib (NSC761431), venetoclax (NSC766270), copanlisib (NSC809693), apelisib (NSC765974), palbociblib (NSC758247), vemurafenib (NSC761431), dabrafenib (NSC764134), ravoxertinib (NSC781343), BMS-387032 (NSC767048), sotorasib (NSC818433), talazoparib (NSC767125) and afursertib (NSC778305), were obtained from the National Cancer Institute (NCI) Developmental Therapeutics Program Chemical Repository. The FDA-approved anticancer drug set is available from the NCI Developmental Therapeutics Program. […] The stock solutions were prepared in dimethyl sulfoxide (DMSO, Sigma-Aldrich, St. Louis, MO, cat. D2650) at 800-fold the tested concentration and stored at -70 degrees C prior to their use. All drugs and investigational agents were tested over a range starting from a high concentration at or near the clinical Cmax and decreasing in half-log increments. If the clinical Cmax for an agent had not been determined, the highest concentration tested was 10 microM.
NCI60 Cell Culture. NCI60 cell lines were obtained from the NCI Developmental Therapeutics Program Tumor Repository. For each lot of cells, the Repository performed Applied Biosystems AmpFLSTR Identifiler testing with PCR amplification to confirm consistency with the published Identifier STR profile for each cell line. Cells were kept in continuous culture for no more than 20 passages. The optimal seeding densities for each of the cell lines at each time point assessed were determined prior to performing the concentration response studies. Briefly, the NCI60 human tumor lines were grown as monolayers in RPMI 1640 medium supplemented with 10% FBS and 2 mmol/L L-glutamine.
An additional 9 lines were from the NCI60 cell line panel including MDA-MB-231 breast carcinoma, MDA-MB-468 breast carcinoma, MCF7 breast carcinoma, Hs578T breast carcinoma, MALME-3M melanoma, SK-MEL-2 melanoma, SK-OV-3 ovarian carcinoma, DU-145 prostate carcinoma, PC-3 prostate carcinoma, all cell lines along with major genetic alterations are listed on Table 2. Pooled donor human umbilical vein endothelial cells (HUVEC, Lonza, cat. CC-2519) and human mesenchymal stem cells (hMSC, Lonza, cat. PT-2501) were purchased from Lonza (Walkersville, MD).
PDMR cell lines were grown in complete medium (DC medium): Dulbecco's modified Eagle's medium (DMEM)/F12 supplemented with 5% fetal bovine serum (FBS), 2 mM L-glutamine, 100 U/mL penicillin and 100 µg/ml streptomycin, 0.4 µg/ml hydrocortisone, 10 ng/ml epidermal growth factor (EGF) recombinant human protein, 24 µg/mL adenine, and 0.1 mg/mL primocin. During culture from frozen stock vials, PDMR cells were cultured in the same medium containing 10 µM Y-27632 (see Table 3). The PDCs were cultured in complete DMEM/F12 media without 10 microM Y-27632 dihydrochloride for at least two passages prior to the screen. The pooled donor HUVEC and hMSC were cultured in endothelial cell growth medium 2 (PromoCell, Heidelberg, Germany, cat. C-22011) and mesenchymal stem cell growth medium 2 (PromoCell, cat. C-28009), respectively. For all experiments, HUVEC and hMSC were used at passages </=5.
[…]
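Note: spheroids exposed to compounds for 7 days.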

Cc1nc(NC(=O)N2CCCC2C(N)=O)sc1-c1ccnc(C(C)(C)C(F)(F)F)c1 (centres undefined) + CC(C)NCC(C(=O)N1CCN(c2ncnc3c2C(C)CC3O)CC1)c1ccc(Cl)cc1
6.93: pIC50 (curve of first compound, second compound 0.1 µM)
inactive: viability, T/C (second compound 0.1 µM, first compound 0.0316 µM) 75.5% | viability, T/C (second compound 0.1 µM, first compound 0.1 µM) 52.5% | viability, T/C (second compound 0.1 µM, first compound 0.316 µM) 31.8% | viability, T/C (second compound 0.1 µM, first compound 1 µM) 16.8% | viability, T/C (second compound 0.1 µM, first compound 3.16 µM) 14.2% | viability, T/C (second compound 0.1 µM, first compound 10 µM) 12.7% | viability, T/C (second compound 0.316 µM, first compound 0.0316 µM) 40.3% | viability, T/C (second compound 0.316 µM, first compound 0.1 µM) 33.8% | viability, T/C (second compound 0.316 µM, first compound 0.316 µM) 24.9% | viability, T/C (second compound 0.316 µM, first compound 1 µM) 12.6% | viability, T/C (second compound 0.316 µM, first compound 3.16 µM) 13.7% | viability, T/C (second compound 1 µM, first compound 0.0316 µM) 21.9% | viability, T/C (second compound 1 µM, first compound 0.1 µM) 16.2% | viability, T/C (second compound 1 µM, first compound 0.316 µM) 13.6% | viability, T/C (second compound 1 µM, first compound 1 µM) 11% | viability, T/C (second compound 3.16 µM, first compound 0.0316 µM) 11.4%
active: viability, T/C (second compound 0.316 µM, first compound 10 µM) 9.57% | viability, T/C (second compound 1 µM, first compound 3.16 µM) 10.2% | viability, T/C (second compound 1 µM, first compound 10 µM) 8.68% | viability, T/C (second compound 3.16 µM, first compound 0.1 µM) 9.53% | viability, T/C (second compound 3.16 µM, first compound 0.316 µM) 9.54% | viability, T/C (second compound 3.16 µM, first compound 1 µM) 7.39% | viability, T/C (second compound 3.16 µM, first compound 3.16 µM) 7.95% | viability, T/C (second compound 3.16 µM, first compound 10 µM) 7.62% | viability, T/C (second compound 10 µM, first compound 0.0316 µM) 8.29% | viability, T/C (second compound 10 µM, first compound 0.1 µM) 7.93% | viability, T/C (second compound 10 µM, first compound 0.316 µM) 7.48% | viability, T/C (second compound 10 µM, first compound 1 µM) 6.51% | viability, T/C (second compound 10 µM, first compound 3.16 µM) 6.55% | viability, T/C (second compound 10 µM, first compound 10 µM) 5.85%
> 7.50: pIC50 (curve of first compound, second compound 0.316 µM) | pIC50 (curve of first compound, second compound 1 µM) | pIC50 (curve of first compound, second compound 3.16 µM) | pIC50 (curve of first compound, second compound 10 µM)

C=CC(=O)N1CCN(c2nc(=O)n(-c3c(C)ccnc3C(C)C)c3nc(-c4c(O)cccc4F)c(F)cc23)C(C)C1 (centres undefined)
5.02 and 5.15: pIC50 (curve of compound)
inactive: viability, T/C (compound 0.0316 µM) 109% and 107% | viability, T/C (compound 0.1 µM) 107% and 104% | viability, T/C (compound 0.316 µM) 105% and 94.1% | viability, T/C (compound 1 µM) 102% and 96.4% | viability, T/C (compound 3.16 µM) 72.9% and 76.2% | viability, T/C (compound 10 µM) 48.9% and 38%

COc1c(OCCCN2CCOCC2)ccc2c3n(c(=NC(=O)c4cnc(N)nc4)nc12)CCN3
8.04 and 7.92: pIC50 (curve of compound)
active: viability, T/C (compound 0.1 µM) 7.98% and 6.59% | viability, T/C (compound 0.316 µM) 7.2% and 6.31% | viability, T/C (compound 1 µM) 6.67% and 5.78%
inactive: viability, T/C (compound 0.00316 µM) 98.7% and 85.4% | viability, T/C (compound 0.01 µM) 45.2% and 56.9% | viability, T/C (compound 0.0316 µM) 11.5% and 15.2%
